The text below walks through data of US20050152858A1, “Solubilizing agents for active or functional organic compounds” (ISP INVESTMENTS INC., priority 2003, published 2005).

Where two headings read alike, the source gives them in different places.

Data set [1] can be described thus: Enhancement of UVA absorption (UV spectrum of sunscreen in solvent). It counts as physicochemical. The following applies: for λmax of E-517 in the solvent: 10 mg sunscreen E-517 (avobenzone) in 1 L of solvent; for λmax of E-567 in the solvent: 10 mg sunscreen E-567 (benzophenone-3) in 1 L of solvent. As to the method: A 10-mg portion of sunscreen was dissolved in 1 L of solvent, and the UV spectrum of the solution was measured using a Cary 1 E UV-Visible spectrophotometer.

Data set [2] is described as follows: Solubility of solid organic sunscreens in various solvents. As to the method:
Predetermined solutions (w/w) were prepared at 40-50° C. using a given solvent-sunscreen combination. The solutions were allowed to stand for 1 week at 25° C. in a constant temperature chamber. A small seed crystal was initially added at 25° C. to hasten equilibration. Solubility was measured by GLC using standard solutions to calibrate the instrument.

For `CCO` [Ethanol, reference compound], in data set [1], the “λmax of E-517 in the solvent” value is given as 358 nm and the “λmax of E-567 in the solvent” value is listed as 325 nm.
As for `O=C(Cc1cccc(C(F)(F)F)c1)OCc1ccccc1` [benzyl α,α,α-trifluoro-m-tolylacetate, Benzyl α,α,α-Trifluoro-m-tolylacetate], in data set [2] (sunscreen Avobenzone, 1 week at 25° C., seeded, GLC), the “Solubility of Avobenzone in the solvent” value is 15 % w/w. Besides, the “Solubility of MBC in the solvent” value in data set [2] (sunscreen MBC (4-methylbenzylidene camphor), 1 week at 25° C., seeded, GLC) is on record as 34 % w/w. For the same compound, the “Solubility of Oxybenzone in the solvent” value in data set [2] (sunscreen Oxybenzone, 1 week at 25° C., seeded, GLC) was determined as 28 % w/w.
For the compound `O=C(OCCc1ccccc1)c1ccccc1` [2-phenylethyl benzoate, 2-Phenylethyl Benzoate], in data set [1], the “λmax of E-517 in the solvent” value came out at 362 nm and the “λmax of E-567 in the solvent” value is on record as 329 nm.
Consider `CC(COC(=O)c1ccccc1)OC(=O)c1ccccc1` (centres unmarked) [propylene glycol dibenzoate, Propylene Glycol Dibenzoate], for which the “Solubility of MBC in the solvent” value in data set [2] came to 33 % w/w.
